Source: patent US11754498B2, “Single AIEgen for multiple tasks: imaging of dual organelles and evaluation of cell viability” (THE HONG KONG UNIVERSITY OF SCIENCE AND TECHNOLOGY, priority 2019, dated 2023)

What was measured:
HeLa cells [1] = test: standard MTT assay, cytotoxicity in HeLa cells; type: cell-based; details: incubation at different concentrations for 24 h
Text: Before bioimaging, the cytotoxicity of TVQE was first studied by standard MTT assay in HeLa cells.

[2] = test system: mitochondria in live HeLa cells; test: co-stain with mitochondrial probe MitoTracker Deep Red FM (MTDR), CLSM; type: cell-based; details: 2 μM TVQE, 0.2 μM MTDR
Experimental: (§1) To further confirm the staining location of TVQE, co-stain experiments with commercialized mitochondrial probe MitoTracker Deep Red FM (MTDR) and lipid-droplet probe Nile Red were performed.

[3] = test system: lipid droplets in live HeLa cells; test: co-stain with lipid-droplet probe Nile Red, CLSM; type: cell-based; details: 2 μM TVQE, 1 μM Nile Red
Experimental: as §1

[4] = absorption and fluorescence (FL) spectra, photophysical properties; type: physicochemical
Experimental: The absorption and fluorescence (FL) spectra of TVQE and TVQ in different solvents were tested and the results are shown in FIGS. 11A-11D and FIGS. 12A-12D.
Furthermore, fluorescence spectra of TVQE in EtOH and EtOH/hexane mixtures with different hexane fraction were shown in FIG. 11A. In pure EtOH, TVQE was weakly emissive with a quantum yield of 0.7%. With the increase of hexane volume content, the FL intensity increased gradually, accompanied with blue-shift in FL maximum from 673 nm to 637 nm, shown in FIG. 11B. When fH=90%, FL intensity reached the maximum with a quantum yield of 3% due to the formation of aggregates, indicating the AIE feature of TVQE. The FL intensity decreased when fH increased to 95%, probably due to the change of the morphology and size of the aggregates. […]

esterase = test: FL spectra of TVQE treated with active esterase in PBS; type: biochemical; details: room temperature
Experimental: To get insight into the mechanism of TVQE to esterase, the FL spectra of TVQE treated with active esterase in PBS at room temperature were measured and shown in FIG. 11D. At the beginning, only a weak emission peak at around 700 nm was detected. As treatment time progressed, the fluorescence at about 520 nm increased gradually, which was consistent with the FL spectra of TVQ in PBS, depicted in FIG. 12B.

live HeLa cells = test: CLSM imaging of live HeLa cells, in situ emission spectra and time tracking; type: cell-based
Experimental: Bioimaging experiments were then carried out in live HeLa cells. Based on the spectra imaging function of confocal laser scanning microscope (CLSM), the real color images of live HeLa cells stained with TVQE and in situ emission spectra were obtained (FIGS. 14A-14C and FIG. 15A). […] As designed, TVQE can be hydrolyzed by esterase to provide TVQ. It was speculated that the red emission came from TVQE while the blue emission was from the hydrolysate TVQ.
The in situ imaging performance of TVQE in live HeLa cells at different time points was then tracked and investigated (FIGS. 16A-16B and FIGS. 17A-17B). It could be observed that TVQE first stained mitochondria and emitted red fluorescence. Then, after about 5 min, lipid droplets in the blue channel were clearly illuminated. It should be noted that the fluorescence intensity in the red channel increased at the beginning, reached maximum at about 12 min, then decreased gradually. The fluorescence in the blue channel increased with increased time. […] In addition, the lipophilic hydrolysate tended to accumulate in lipid droplets gradually.

HeLa cells [5] = test: flow cytometry of live, early apoptotic, late apoptotic and dead cells stained by TVQE; type: cell-based
Experimental: As esterase activity can reflect cell viability, an investigation was conducted to determine whether TVQE could be used to evaluate cell viability. […] In apoptotic cells, the esterase activity decreased, so that the emission in the blue channel was much weaker than that in live cells. When HeLa cells were treated with 10 mM H2O2 for 1 h and 4.5 h, early and late apoptotic HeLa cells could be clearly and differentially visualized (FIGS. 18 and 19). […] However, nearly no blue-emissive fluorescence signal but strong red emission was detected in dead cells because of the inactivated esterase activity. […] The fluorescence changes in both blue and red channels of cells in different states were obtained from flow cytometry (Becton Dickinson FACSAria Mu). Referring to FIG. 20C, numerical values in the cyan region, e.g., mean fluorescent intensity values around 3.2×10^4 and 650 in the blue and red channels, respectively correspond to cells that were alive, numerical values in the red region, e.g., mean fluorescence intensity values around 1.4×10^4 and 780 in the blue and red channels, respectively, correspond to cells in early apoptotic stages, numerical values in the orange region, e.g., mean fluorescence intensity values around 1700 and 4200 in the blue and red channels, respectively, correspond to cells in the late apoptotic stages, and numerical values in the green region, e.g., mean fluorescence intensity values around 780 and 1.5×10^4 in the blue and red channels, respectively, correspond to cells that were dead.
Flow cytometry is a widely used tool for statistical analysis. It has different laser sources and is suitable for simultaneous detection of multichannel fluorescence signals. A flow cytometry assay was performed to monitor the fluorescence changes in both red and blue channels of cells at different physiological stages. […] Compared with live cells, the blue emission in early apoptotic cells was a little weaker. […] The red emission in dead cells was stronger in comparison with late apoptotic cells.

[6] = live HeLa cells stained with 2 μM TVQE, in situ emission spectra
[7] = cells in early apoptotic stages (10 mM H2O2)
[8] = cells in the late apoptotic stages (10 mM H2O2)

CC(=O)Oc1ccc(C[n+]2ccc(/C=C/c3ccc(N(c4ccccc4)c4ccccc4)cc3)c3ccccc32)cc1 [TVQE]
viability of HeLa cells (HeLa cells [1]): higher than 85% | co-localization coefficient with MTDR [2]: 0.9 | co-localization coefficient with Nile Red [3]: 0.87 | Stokes shift ([4]; EtOH): 123 nm | Φ (fluorescence quantum yield) ([4]; EtOH): 0.7% | ε (molar absorptivity at maximum absorption wavelength) ([4]; EtOH): 18900 M⁻¹ cm⁻¹ | λabs (absorption maximum) ([4]; EtOH): 548 nm | λem (emission maximum) ([4]; EtOH): 671 nm | Stokes shift ([4]; Hexane/EtOH = 9/1): 131 nm | ε (molar absorptivity at maximum absorption wavelength) ([4]; Hexane/EtOH = 9/1): 18800 M⁻¹ cm⁻¹ | λabs (absorption maximum) ([4]; Hexane/EtOH = 9/1): 527 nm | λem (emission maximum) ([4]; Hexane/EtOH = 9/1): 656 nm | Φ (fluorescence quantum yield) ([4]; Hexane/EtOH = 9/1 (fH=90%)): 3% | Stokes shift ([4]; THF): 156 nm | Φ (fluorescence quantum yield) ([4]; THF): 1.3% | ε (molar absorptivity at maximum absorption wavelength) ([4]; THF): 16600 M⁻¹ cm⁻¹ | λabs (absorption maximum) ([4]; THF): 522 nm | λem (emission maximum) ([4]; THF): 678 nm | Stokes shift ([4]; Tol): 125 nm | Φ (fluorescence quantum yield) ([4]; Tol): 6.6% | ε (molar absorptivity at maximum absorption wavelength) ([4]; Tol): 17300 M⁻¹ cm⁻¹ | λabs (absorption maximum) ([4]; Tol): 534 nm | λem (emission maximum) ([4]; Tol): 659 nm | fluorescence emission ([4]; solid state): 739 nm | quantum yield ([4]; solid state): 2.3% | hydrolysis by esterase (esterase; active esterase (1 U/mL) in PBS): could be hydrolyzed to TVQ with blue emission by esterase | fluorescence increasing gradually as treatment time progressed (esterase; esterase in PBS): about 520 nm | emission peak at the beginning (esterase; esterase in PBS, beginning of treatment): around 700 nm | blue emission inside cells (live HeLa cells; [6]): 480 nm | red emission inside cells (live HeLa cells; [6]): 650 nm | time after which lipid droplets in the blue channel were clearly illuminated (live HeLa cells; live HeLa cells, 2 μM TVQE): about 5 min | time at which fluorescence intensity in the red channel reached maximum (live HeLa cells; live HeLa cells, 2 μM TVQE): about 12 min | mean fluorescence intensity, blue channel (HeLa cells [5]; [7]): around 1.4×10^4 | mean fluorescence intensity, red channel (HeLa cells [5]; [7]): around 780 | mean fluorescence intensity, blue channel (HeLa cells [5]; [8]): around 1700 | mean fluorescence intensity, red channel (HeLa cells [5]; [8]): ~4200 | mean fluorescent intensity, blue channel (HeLa cells [5]; cells that were alive): around 3.2×10^4 | mean fluorescent intensity, red channel (HeLa cells [5]; cells that were alive): ~650 | mean fluorescence intensity, blue channel (HeLa cells [5]; cells that were dead): around 780 | mean fluorescence intensity, red channel (HeLa cells [5]; cells that were dead): ~1.5×10^4
